According to US9775831B2, “Combinations comprising biphenyl derivatives for use in the treatment of HCV” (BRISTOL-MYERS SQUIBB COMPANY, priority 2013, dated 2017):

The compounds below were run on genotype-1a variant with glutamine 30 changed to glutamate in the NS5A protein (assay: HCV replicon cell-based assay, NS5A synergy with BMS-790052). Settings: genotype 1a Q→E variant; test compound titrated in combination with NS5A-targeting compound (BMS-790052 fixed at 200 nM).
Text: The NS5A synergistic inhibitory effect of test compounds can be determined using various amounts of an NS5A-targeting compound with titration of a second compound of interest. […] In one embodiment, the HCV genotype strain can be genotype 1a containing a change at amino acid 30 of the NS5A protein consisting of glutamine to glutamate. The test compound can be chosen from compounds listed above or from others present in the literature.

Row | SMILES | Fold Synergistic (1a-QE)
1 | CCN(CC)C(=O)C(c1ncc(-c2ccc(-c3ccc(-c4cnc(C(C(=O)N(CC)CC)C(C)(C)C)[nH]4)cc3)cc2)[nH]1)C(C)(C)C (centres unmarked) [Example B3] | >10 Fold
2 | CC(C)CNC(=O)C[C@@H](CCC(F)(F)F)c1ncc(-c2ccc(-c3ccc(-c4cnc([C@H](CCC(F)(F)F)CC(=O)NCC(C)C)[nH]4)cc3)cc2)[nH]1 [Example MD-3] | >10 Fold
3 | COC(=O)[C@@H](NC(=O)C[C@@H](CCC(F)(F)F)c1ncc(-c2ccc(-c3ccc(-c4cnc([C@H](CCC(F)(F)F)CC(=O)N[C@H](C(=O)OC)C(C)C)[nH]4)cc3)cc2)[nH]1)C(C)C [Example MD-1] | >10 Fold
4 | CCO[C@H](CC(=O)N(NC(=O)OC)C(C)C)c1ncc(-c2ccc(-c3ccc(-c4cnc([C@@H](CC(=O)N(NC(=O)OC)C(C)C)OCC)[nH]4)cc3)cc2)[nH]1 [Example MD-5] | >10 Fold
5 | CC(C)[C@H](CC(=O)N(C)CC(=O)N(C)C)c1ncc(-c2ccc(-c3ccc(-c4cnc([C@@H](CC(=O)N(C)CC(=O)N(C)C)C(C)C)[nH]4)cc3)cc2)[nH]1 [MD-30] | <10 Fold
6 | CC(C)[C@H](CC(=O)N(C)CC(C)(C)C)c1ncc(-c2ccc(-c3ccc(-c4cnc([C@@H](CC(=O)N(C)CC(C)(C)C)C(C)C)[nH]4)cc3)cc2)[nH]1 [MD-49] | >10 Fold
7 | CC(C)(C)NC(=O)C(c1ncc(-c2ccc(-c3ccc(-c4cnc(C(C(=O)NC(C)(C)C)C(C)(C)C)[nH]4)cc3)cc2)[nH]1)C(C)(C)C (centres unmarked) [Example B1] | >100 Fold
8 | CC(C)(C)C(C(=O)NC1CCCCC1)c1ncc(-c2ccc(-c3ccc(-c4cnc(C(C(=O)NC5CCCCC5)C(C)(C)C)[nH]4)cc3)cc2)[nH]1 (centres unmarked) [Example B5] | <10 Fold
9 | CCO[C@H](CC(=O)NCC(C)C)c1nc(-c2ccc(-c3ccc(-c4c[nH]c([C@@H](CC(=O)NCC(C)C)OCC)n4)cc3)cc2)c[nH]1 [Example MD-6] | >10 Fold
10 | CC(C)[C@H](CC(=O)NCC1(c2ccccc2)CCCCC1)c1ncc(-c2ccc(-c3ccc(-c4cnc([C@@H](CC(=O)NCC5(c6ccccc6)CCCCC5)C(C)C)[nH]4)cc3)cc2)[nH]1 [MD-23] | >100 Fold
11 | CC(C)[C@H](CC(=O)NCC(C)(C)O)c1ncc(-c2ccc(-c3ccc(-c4cnc([C@@H](CC(=O)NCC(C)(C)O)C(C)C)[nH]4)cc3)cc2)[nH]1 [Example MD-41] | >10 Fold
12 | C[C@H](CC(=O)N1CCOCC1)c1ncc(-c2ccc(-c3ccc(-c4cnc([C@H](C)CC(=O)N5CCOCC5)[nH]4)cc3)cc2)[nH]1 [MD-37] | >10 Fold
13 | CC(C)N(C(=O)C[C@@H](CCC(F)(F)F)c1ncc(-c2ccc(-c3ccc(-c4cnc([C@H](CCC(F)(F)F)CC(=O)N(C(C)C)C5CC5)[nH]4)cc3)cc2)[nH]1)C1CC1 [Example MD-56] | <10 Fold
14 | CC1(C)O[C@@H](C(N)=O)[C@H](c2ncc(-c3ccc(-c4ccc(-c5coc([C@@H]6OC(C)(C)O[C@H]6C(N)=O)n5)cc4)cc3)[nH]2)O1 [MD-10] | <10 Fold
15 | COC(=O)NN(C(=O)C[C@@H](C)c1nc(-c2ccc(-c3ccc(-c4c[nH]c([C@H](C)CC(=O)N(NC(=O)OC)C(C)C)n4)cc3)cc2)c[nH]1)C(C)C [MD-12] | >10 Fold
16 | COC(=O)NN(C(=O)[C@@H]1OCO[C@H]1c1ncc(-c2ccc(-c3ccc(-c4cnc([C@@H]5OCO[C@H]5C(=O)N(NC(=O)OC)C(C)C)[nH]4)cc3)cc2)[nH]1)C(C)C [MD-17] | <10 Fold
17 | CC(C)CNC(=O)[C@@H]1OC(C)(C)O[C@H]1c1ncc(-c2ccc(-c3ccc(-c4cnc([C@@H]5OC(C)(C)O[C@H]5C(=O)NCC(C)C)[nH]4)cc3)cc2)[nH]1 [Example MD-7] | <10 Fold
18 | CC(C)CNC(=O)C[C@@H](C)c1nc(-c2ccc(-c3ccc(-c4c[nH]c([C@H](C)CC(=O)NCC(C)C)n4)cc3)cc2)c[nH]1 [Example MD-11] | >100 Fold
19 | CCN(CC)C(=O)CN(C)C(=O)C[C@H](c1ncc(-c2ccc(-c3ccc(-c4cnc([C@@H](CC(=O)N(C)CC(=O)N(CC)CC)C(C)C)[nH]4)cc3)cc2)[nH]1)C(C)C [MD-24] | >10 Fold
20 | O=C(C[C@@H](CCC(F)(F)F)c1ncc(-c2ccc(-c3ccc(-c4cnc([C@H](CCC(F)(F)F)CC(=O)N5CCC(F)CC5)[nH]4)cc3)cc2)[nH]1)N1CCC(F)CC1 [Example MD-2] | >100 Fold
21 | CC(C)NC(=O)C[C@@H](CCC(F)(F)F)c1ncc(-c2ccc(-c3ccc(-c4cnc([C@H](CCC(F)(F)F)CC(=O)N(C(C)C)C5CC5)[nH]4)cc3)cc2)[nH]1 [Example MD-57] | >10 Fold
22 | CC(C)[C@H](CC(=O)NCC(C)(c1ccccc1)c1ccccc1)c1ncc(-c2ccc(-c3ccc(-c4cnc([C@@H](CC(=O)NCC(C)(c5ccccc5)c5ccccc5)C(C)C)[nH]4)cc3)cc2)[nH]1 [MD-28] | >100 Fold

Row | SMILES | Fold Synergistic (1a-QE)
23 | CC(C)[C@H](CC(=O)NCC1(O)CCC1)c1ncc(-c2ccc(-c3ccc(-c4cnc([C@@H](CC(=O)NCC5(O)CCC5)C(C)C)[nH]4)cc3)cc2)[nH]1 [MD-54] | >10 Fold
24 | CCOCC1(CNC(=O)C[C@H](c2ncc(-c3ccc(-c4ccc(-c5cnc([C@@H](CC(=O)NCC6(COCC)CC6)C(C)C)[nH]5)cc4)cc3)[nH]2)C(C)C)CC1 [Example MD-20] | >10 Fold
25 | CCC(CC)CNC(=O)C[C@H](c1ncc(-c2ccc(-c3ccc(-c4cnc([C@@H](CC(=O)NCC(CC)CC)C(C)C)[nH]4)cc3)cc2)[nH]1)C(C)C [MD-45] | >100 Fold
26 | CCOC(=O)N1CCN(C(=O)C[C@@H](CCC(F)(F)F)c2ncc(-c3ccc(-c4ccc(-c5cnc([C@H](CCC(F)(F)F)CC(=O)N6CCN(C(=O)OCC)CC6)[nH]5)cc4)cc3)[nH]2)CC1 [MD-58] | >10 Fold
27 | CCCCN(C(=O)C[C@H](c1ncc(-c2ccc(-c3ccc(-c4cnc([C@@H](CC(=O)N(CCCC)C(C)C)C(C)C)[nH]4)cc3)cc2)[nH]1)C(C)C)C(C)C [MD-26] | >10 Fold
28 | CC(C)NC(=O)CN(C)C(=O)C[C@H](c1ncc(-c2ccc(-c3ccc(-c4cnc([C@@H](CC(=O)N(C)CC(=O)NC(C)C)C(C)C)[nH]4)cc3)cc2)[nH]1)C(C)C [MD-48] | <10 Fold
29 | CC(C)[C@H](CC(=O)NC[C@@H]1CC[C@H]2C[C@@H]1C2(C)C)c1ncc(-c2ccc(-c3ccc(-c4cnc([C@@H](CC(=O)NC[C@@H]5CC[C@H]6C[C@@H]5C6(C)C)C(C)C)[nH]4)cc3)cc2)[nH]1 [MD-21] | >100 Fold
30 | CC(C)[C@H](CC(=O)N(C)C1CCOCC1)c1ncc(-c2ccc(-c3ccc(-c4cnc([C@@H](CC(=O)N(C)C5CCOCC5)C(C)C)[nH]4)cc3)cc2)[nH]1 [MD-50] | <10 Fold
31 | CC(C)(C)C(C(=O)Nc1cccc(Cl)c1)c1ncc(-c2ccc(-c3ccc(-c4cnc(C(C(=O)Nc5cccc(Cl)c5)C(C)(C)C)[nH]4)cc3)cc2)[nH]1 (centres unmarked) [Example B2] | <10 Fold
32 | C[C@H](CC(=O)NC1CCOCC1)c1ncc(-c2ccc(-c3ccc(-c4cnc([C@H](C)CC(=O)NC5CCOCC5)[nH]4)cc3)cc2)[nH]1 [MD-39] | >10 Fold
33 | C[C@H](CC(=O)N1CCC(F)(F)CC1)c1nc(-c2ccc(-c3ccc(-c4c[nH]c([C@H](C)CC(=O)N5CCC(F)(F)CC5)n4)cc3)cc2)c[nH]1 [Example MD-13] | >100 Fold
34 | CC(C)[C@H](CC(=O)NCC(C)(C)c1ccccc1)c1ncc(-c2ccc(-c3ccc(-c4cnc([C@@H](CC(=O)NCC(C)(C)c5ccccc5)C(C)C)[nH]4)cc3)cc2)[nH]1 [MD-47] | >100 Fold
35 | CC(C)[C@H](CC(=O)NC1(C#N)CC1)c1ncc(-c2ccc(-c3ccc(-c4cnc([C@@H](CC(=O)NC5(C(N)=O)CC5)C(C)C)[nH]4)cc3)cc2)[nH]1 [MD-33] | <10 Fold
36 | CC(C)[C@H](CC(=O)N1CCN(c2ccccc2)C(=O)C1)c1ncc(-c2ccc(-c3ccc(-c4cnc([C@@H](CC(=O)N5CCN(c6ccccc6)C(=O)C5)C(C)C)[nH]4)cc3)cc2)[nH]1 [MD-29] | <10 Fold
37 | CC(C)[C@H](CC(=O)NCc1ccccc1Cl)c1ncc(-c2ccc(-c3ccc(-c4cnc([C@@H](CC(=O)NCc5ccccc5Cl)C(C)C)[nH]4)cc3)cc2)[nH]1 [Example MD-19] | >100 Fold
38 | CC(C)[C@H](CC(=O)N(C)CC(=O)NC(C)(C)C)c1ncc(-c2ccc(-c3ccc(-c4cnc([C@@H](CC(=O)N(C)CC(=O)NC(C)(C)C)C(C)C)[nH]4)cc3)cc2)[nH]1 [MD-25] | >10 Fold
39 | CC(C)[C@H](CC(=O)N(CCN1CCOC1=O)CC(C)(C)C)c1ncc(-c2ccc(-c3ccc(-c4cnc([C@@H](CC(=O)N(CCN5CCOC5=O)CC(C)(C)C)C(C)C)[nH]4)cc3)cc2)[nH]1 [MD-27] | >10 Fold
40 | CCOC(=O)[C@@H]1OCO[C@H]1c1ncc(-c2ccc(-c3ccc(-c4cnc([C@@H]5OCO[C@H]5C(=O)OCC)[nH]4)cc3)cc2)[nH]1 [Example MD-15] | <10 Fold
41 | CC(C)[C@H](CC(=O)NC1(C#N)CC1)c1ncc(-c2ccc(-c3ccc(-c4cnc([C@@H](CC(=O)NC5(C#N)CC5)C(C)C)[nH]4)cc3)cc2)[nH]1 [MD-31] | <10 Fold
42 | C[C@@H]1CN(C(=O)C[C@@H](C)c2ncc(-c3ccc(-c4ccc(-c5cnc([C@H](C)CC(=O)N6C[C@@H](C)O[C@@H](C)C6)[nH]5)cc4)cc3)[nH]2)C[C@H](C)O1 [Example MD-36] | >10 Fold
43 | CC(C)[C@H](CC(=O)NCC1(c2ccc(F)cc2)CCCC1)c1ncc(-c2ccc(-c3ccc(-c4cnc([C@@H](CC(=O)NCC5(c6ccc(F)cc6)CCCC5)C(C)C)[nH]4)cc3)cc2)[nH]1 [MD-32] | >100 Fold
44 | CC(C)(C)C(C(=O)N1CCCC1)c1ncc(-c2ccc(-c3ccc(-c4cnc(C(C(=O)N5CCCC5)C(C)(C)C)[nH]4)cc3)cc2)[nH]1 (centres unmarked) [Example B4] | <10 Fold
